# According to patent publication US7166738B2, “Non-nucleoside reverse transcriptase inhibitors” (Roche Palo Alto LLC, priority 2004, dated 2007):
row,Structure (SMILES),melting point [°C]
1,CCC(=O)NS(=O)(=O)c1ccc(NC(=O)Cc2ccc(Cl)c(Oc3cc(Cl)cc(C#N)c3)c2F)c(Cl)c1.[Na],155.4 to 157.5
2,Cl.N#Cc1cc(Cl)cc(Oc2c(Cl)ccc(CC(=O)Nc3ccc(S(=O)(=O)NC(=O)CCN)cc3Cl)c2F)c1,199.3 to 199.6
3,COCC(=O)NS(=O)(=O)c1ccc(NC(=O)Cc2ccc(Cl)c(Oc3cc(Cl)cc(C#N)c3)c2F)c(Cl)c1.[Na],151.7 to 152.3
4,N#Cc1cc(Cl)cc(Oc2c(Cl)ccc(CC(=O)Nc3ccc(S(=O)(=O)NC(=O)CO)cc3Cl)c2F)c1.[Na],178 to 179.5
5,Cc1cc(C(=O)CN2CCOCC2)ccc1NC(=O)Cc1ccc(C)c(Oc2cc(Cl)cc(C#N)c2)c1.O=C(O)C(F)(F)F,110.3 to 110.5
6,COCCC(=O)NS(=O)(=O)c1ccc(NC(=O)Cc2ccc(Cl)c(Oc3cc(Cl)cc(C#N)c3)c2F)c(Cl)c1.[Na],133.1 to 140.7
7,CCCCC(=O)NS(=O)(=O)c1ccc(NC(=O)Cc2ccc(Cl)c(Oc3cc(Cl)cc(C#N)c3)c2F)c(Cl)c1.[Na],157.6 to 159.2
8,CC(C)CC(=O)NS(=O)(=O)c1ccc(NC(=O)Cc2ccc(Cl)c(Oc3cc(Cl)cc(C#N)c3)c2F)c(Cl)c1.[Na],159.3 to 163.4
9,CCN(CC)CC(=O)NS(=O)(=O)c1ccc(NC(=O)Cc2ccc(Cl)c(Oc3cc(Cl)cc(C#N)c3)c2F)c(Cl)c1.Cl,195.3 to 197.2
10,CC(C)CCC(=O)NS(=O)(=O)c1ccc(NC(=O)Cc2ccc(Cl)c(Oc3cc(Cl)cc(C#N)c3)c2F)c(Cl)c1.[Na],195.6 to 197
11,Cl.N#Cc1cc(Cl)cc(Oc2c(Cl)ccc(CC(=O)Nc3ccc(S(=O)(=O)NC(=O)CN4CCOCC4)cc3Cl)c2F)c1,223.3 to 225
12,CCC(=O)NS(=O)(=O)c1ccc(NC(=O)Cc2ccc(C)c(Oc3cc(Cl)cc(C#N)c3)c2F)c(Cl)c1.[Na],158.8 to 162
13,Cc1cc(S(=O)(=O)NC(=O)[C@@H](N)C(C)C)ccc1NC(=O)Cc1ccc(Cl)c(Oc2cc(Cl)cc(C#N)c2)c1F.Cl,169 to 180.3
14,Cc1cc(S(=O)(=O)NC(=O)c2cccnc2)ccc1NC(=O)Cc1ccc(Cl)c(Oc2cc(Cl)cc(C#N)c2)c1F.Cl,261.8 to 263.6

# Further lines, results first:
row,melting point [°C],Structure (SMILES)
1,210.5 to 214,"N#Cc1cc(Cl)cc(Oc2cc(CC(=O)Nc3ccc(S(N)(=O)=O)cc3)ccc2Cl)c1 [Compound I-1, 2-[4-Chloro-3-(3-chloro-5-cyano-phenoxy)-phenyl]-N-(4-sulfamoyl-phenyl)-acetamide]"
2,218 to 219,"N#Cc1cc(C#N)cc(Oc2cc(CC(=O)Nc3ccc(S(N)(=O)=O)cc3)ccc2Cl)c1 [Compound I-2, 2-[4-Chloro-3-(3,5-dicyano-phenoxy)-phenyl]-N-(4-sulfamoyl-phenyl)-acetamide]"
3,190.1 to 192.2,"Cc1cc(OCCCS(N)(=O)=O)ccc1NC(=O)Cc1ccc(Cl)c(Oc2cc(Cl)ccc2Br)c1 [Compound I-3, 2-[3-(2-Bromo-5-chloro-phenoxy)-4-chloro-phenyl]-N-[2-methyl-4-(3-sulfamoyl-propoxy)-phenyl]-acetamide]"
4,260.1 to 261.9,"NS(=O)(=O)c1ccc(NC(=O)Cc2ccc(Cl)c(Oc3cc(Cl)ccc3Br)c2)cc1 [Compound I-4, 2-[3-(2-Bromo-5-chloro-phenoxy)-4-chloro-phenyl]-N-(4-sulfamoyl-phenyl)-acetamide]"
5,135.7 to 138.1,"N#Cc1cc(C#N)cc(Oc2c(Cl)ccc(CC(=O)Nc3ccc(S(N)(=O)=O)cc3)c2F)c1 [Compound I-9, 2-[4-Chloro-3-(3,5-dicyano-phenoxy)-2-fluoro-phenyl]-N-(4-sulfamoyl-phenyl)-acetamide]"
6,247 to 249,"NS(=O)(=O)c1ccc(NC(=O)Cc2ccc(Cl)c(Oc3cc(Cl)cc(Cl)c3Cl)c2F)cc1 [Compound I-10, 2-[4-Chloro-2-fluoro-3-(2,3,5-trichloro-phenoxy)-phenyl]-N-(4-sulfamoyl-phenyl)-acetamide]"
7,165.8 to 168.1,"Cc1ccc(CC(=O)Nc2ccc(S(N)(=O)=O)cc2)cc1Oc1cc(F)cc(C#N)c1 [Compound I-11, 2-[3-(3-Cyano-5-fluoro-phenoxy)-4-methyl-phenyl]-N-(4-sulfamoyl-phenyl)-acetamide]"
8,131.1 to 132.2,"Cc1ccc(CC(=O)Nc2ccccc2Cl)cc1Oc1cc(F)cc(C#N)c1 [Compound I-12, N-(2-Chloro-phenyl)-2-[3-(3-cyano-5-fluoro-phenoxy)-4-methyl-phenyl]-acetamide]"
9,214 to 218,"N#Cc1cc(Oc2c(Cl)ccc(CC(=O)Nc3ccc(S(N)(=O)=O)cc3)c2F)cc(C(F)F)c1 [Compound I-13, 2-[4-Chloro-3-(3-cyano-5-difluoromethyl-phenoxy)-2-fluoro-phenyl]-N-(4-sulfamoyl-phenyl)-acetamide]"
10,169.5 to 171,"N#Cc1cc(Oc2c(Cl)ccc(CC(=O)Nc3ccccc3Cl)c2F)cc(C(F)F)c1 [Compound I-14, 2-[4-Chloro-3-(3-cyano-5-difluoromethyl-phenoxy)-2-fluoro-phenyl]-N-(2-chloro-phenyl)-acetamide]"
11,193.7 to 195.9,"CCc1ccc(CC(=O)Nc2ccc(S(N)(=O)=O)cc2)cc1Oc1cc(Cl)ccc1Br [Compound I-15, 2-[3-(2-Bromo-5-chloro-phenoxy)-4-ethyl-phenyl]-N-(4-sulfamoyl-phenyl)-acetamide]"
12,154 to 155.5,"CCc1ccc(CC(=O)Nc2ccccc2Cl)cc1Oc1cc(Cl)ccc1Br [Compound I-16, 2-[3-(2-Bromo-5-chloro-phenoxy)-4-ethyl-phenyl]-N-(2-chloro-phenyl)-acetamide]"
13,198.1 to 202.6,"CCc1ccc(CC(=O)Nc2ccc(S(N)(=O)=O)cc2)cc1Oc1cc(Cl)ccc1C#N [Compound I-17, 2-[3-(5-Chloro-2-cyano-phenoxy)-4-ethyl-phenyl]-N-(4-sulfamoyl-phenyl)-acetamide]"
14,168 to 169.9,"CCc1ccc(CC(=O)Nc2ccccc2Cl)cc1Oc1cc(Cl)ccc1C#N [Compound I-18, 2-[3-(5-Chloro-2-cyano-phenoxy)-4-ethyl-phenyl]-N-(2-chloro-phenyl)-acetamide]"
15,190 to 193.4,"CCc1ccc(CC(=O)Nc2ccc(S(N)(=O)=O)cc2)cc1Oc1cc(Cl)ccc1Cl [Compound I-19, 2-[3-(2,5-Dichloro-phenoxy)-4-ethyl-phenyl]-N-(4-sulfamoyl-phenyl)-acetamide]"
16,222.5 to 225,"CCc1ccc(CC(=O)Nc2ccc(S(N)(=O)=O)cc2)cc1Oc1c(Cl)cccc1Cl [Compound I-20, 2-[3-(2,6-Dichloro-phenoxy)-4-ethyl-phenyl]-N-(4-sulfamoyl-phenyl)-acetamide]"
17,146.3 to 147.1,"CCc1ccc(CC(=O)Nc2ccccc2Cl)cc1Oc1cc(Cl)ccc1Cl [Compound I-21, N-(2-Chloro-phenyl)-2-[3-(2,5-dichloro-phenoxy)-4-ethyl-phenyl]-acetamide]"
18,216.1 to 221.3,"CCc1ccc(CC(=O)Nc2ccc(S(N)(=O)=O)cc2)cc1Oc1cc(Cl)cc(Br)c1 [Compound I-22, 2-[3-(3-Bromo-5-chloro-phenoxy)-4-ethyl-phenyl]-N-(4-sulfamoyl-phenyl)-acetamide]"
19,107 to 110.5,"CCc1ccc(CC(=O)Nc2ccccc2Cl)cc1Oc1c(Cl)cccc1Cl [Compound I-23, N-(2-Chloro-phenyl)-2-[3-(2,6-dichloro-phenoxy)-4-ethyl-phenyl]-acetamide]"
20,119.9 to 122.2,"CCc1ccc(CC(=O)Nc2ccccc2Cl)cc1Oc1cc(Cl)cc(Br)c1 [Compound I-24, 2-[3-(3-Bromo-5-chloro-phenoxy)-4-ethyl-phenyl]-N-(2-chloro-phenyl)-acetamide]"
21,204.1 to 206.7,"CC(C)c1ccc(CC(=O)Nc2ccc(S(N)(=O)=O)cc2)cc1Oc1cc(Cl)ccc1Br [Compound I-26, 2-[3-(2-Bromo-5-chloro-phenoxy)-4-isopropyl-phenyl]-N-(4-sulfamoyl-phenyl)-acetamide]"
22,142.9 to 143.6,"CC(C)c1ccc(CC(=O)Nc2ccccc2Cl)cc1Oc1cc(Cl)ccc1Br [Compound I-27, 2-[3-(2-Bromo-5-chloro-phenoxy)-4-isopropyl-phenyl]-N-(2-chloro-phenyl)-acetamide]"
23,182.6 to 196.5,"N#Cc1cc(C#N)cc(Oc2c(Cl)ccc(CC(=O)Nc3ccccc3Cl)c2F)c1 [Compound I-28, 2-[4-Chloro-3-(3,5-dicyano-phenoxy)-2-fluoro-phenyl]-N-(2-chloro-phenyl)-acetamide]"
24,236.9 to 239.3,"Cc1ccc(CC(=O)Nc2ccc(S(N)(=O)=O)cc2)cc1Oc1cc(Cl)ccc1Br [Compound I-30, 2-[3-(2-Bromo-5-chloro-phenoxy)-4-methyl-phenyl]-N-(4-sulfamoyl-phenyl)-acetamide]"
25,200.5 to 203.5,"Cc1cc(S(N)(=O)=O)ccc1NC(=O)Cc1ccc(C)c(Oc2cc(Cl)ccc2Br)c1 [Compound I-31, 2-[3-(2-Bromo-5-chloro-phenoxy)-4-methyl-phenyl]-N-(2-methyl-4-sulfamoyl-phenyl)-acetamide]"
26,248.4 to 250.8,"Cc1cc(S(N)(=O)=O)ccc1NC(=O)Cc1ccc(Cl)c(Oc2cc(C#N)cc(C#N)c2)c1F [Compound I-32, 2-[4-Chloro-3-(3,5-dicyano-phenoxy)-2-fluoro-phenyl]-N-(2-methyl-4-sulfamoyl-phenyl)-acetamide]"
27,133.9 to 135.9,"Cc1ccc(CC(=O)Nc2ccccc2Cl)cc1Oc1cc(Cl)ccc1Br [Compound I-33, 2-[3-(2-Bromo-5-chloro-phenoxy)-4-methyl-phenyl]-N-(2-chloro-phenyl)-acetamide]"
28,175.1 to 177.5,"Cc1ccc(CC(=O)Nc2ccccc2Cl)cc1Oc1cc(C#N)cc(C#N)c1 [Compound I-34, N-(2-Chloro-phenyl)-2-[3-(3,5-dicyano-phenoxy)-4-methyl-phenyl]-acetamide]"
29,206.9 to 209.9,"CCc1ccc(CC(=O)Nc2ccc(S(N)(=O)=O)cc2)cc1Oc1cc(Cl)cc(Br)c1Cl [Compound I-35, 2-[3-(3-Bromo-2,5-dichloro-phenoxy)-4-ethyl-phenyl]-N-(4-sulfamoyl-phenyl)-acetamide]"
